For one series, the system named is Candida albicans. The series can be described thus: Agar dilution method, MIC alone and in combination with sterol biosynthesis inhibitors, FIC. To be noted: for MIC: Candida albicans, 48 h, alone, 37° C., 2 days. Type of series: cell-based. For orientation: In agar dilution, organisms are placed on agar that contains the substance at set levels.
Series [1] concerns the target 2,3-epoxysqualene-lanosterol cyclase (Candida albicans, UniProt Q04782). The series can be described thus: Inhibition of 2,3-epoxysqualene-lanosterol cyclase from Candida albicans (cell-free extract, 14C-squalene epoxide). Format: biochemical.
A short description of series [2]: Acute toxicity in the case of subcutaneous administration to mice. Particulars: mouse, in vivo, sc. The procedure:
The IC50 values are determined graphically and are given in μg of test substance per ml. Table I contains IC50 values determined in the above test for representative members of the class of compound defined by formula I as well as data concerning the acute toxicity in the case of subcutaneous administration to mice (LD50 in mg/kg).

pIC50: −log10 of the molar value. Like-named read-outs stand apart in the source and are kept apart here.

The text below walks through data of patent publication US5214046A, “Substituted aminoalkoxybenzene anti-fungicidal compositions and use” (Hoffmann-La Roche Inc., priority 1989, dated 1993).

2,3-epoxysqualene-lanosterol cyclase, sequence (Q04782 whole entry): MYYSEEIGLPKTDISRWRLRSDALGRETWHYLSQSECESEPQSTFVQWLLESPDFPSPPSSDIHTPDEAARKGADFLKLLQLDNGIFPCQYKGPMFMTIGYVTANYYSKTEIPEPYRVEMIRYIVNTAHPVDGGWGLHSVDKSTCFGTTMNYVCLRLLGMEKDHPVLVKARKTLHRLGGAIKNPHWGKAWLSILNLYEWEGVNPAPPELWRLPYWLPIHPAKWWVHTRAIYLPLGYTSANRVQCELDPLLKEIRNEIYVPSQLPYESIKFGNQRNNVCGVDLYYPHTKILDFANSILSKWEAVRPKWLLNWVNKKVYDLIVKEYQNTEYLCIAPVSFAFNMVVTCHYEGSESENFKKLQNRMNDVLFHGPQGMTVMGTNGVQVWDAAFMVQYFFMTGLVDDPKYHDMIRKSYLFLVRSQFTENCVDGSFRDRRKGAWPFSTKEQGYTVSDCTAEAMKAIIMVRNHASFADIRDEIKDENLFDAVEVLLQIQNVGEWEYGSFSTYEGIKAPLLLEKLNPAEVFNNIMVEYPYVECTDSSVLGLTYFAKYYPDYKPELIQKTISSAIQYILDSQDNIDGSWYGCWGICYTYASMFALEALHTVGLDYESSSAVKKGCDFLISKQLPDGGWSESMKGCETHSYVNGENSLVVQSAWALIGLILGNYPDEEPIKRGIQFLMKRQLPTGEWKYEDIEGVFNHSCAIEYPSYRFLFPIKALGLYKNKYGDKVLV

As usually defined, the MIC is the lowest concentration found to suppress growth. On to `CN(C/C=C/C#CC(C)(C)C)Cc1cccc2ccccc12` [Terbinafin, reference compound], for which the MIC in combination with Candida albicans (C. albicans B4, Compound 6 + Terbinafin in combination) worked out at 0.55 µg/mL; in the series with Candida albicans (C. albicans B5, Compound 6 + Terbinafin in combination), 0.75 µg/mL; in the series on Candida albicans (C. albicans H12, Compound 6 + Terbinafin in combination), 6.25 µg/mL; in the series on Candida albicans (C. albicans H29, Compound 6 + Terbinafin in combination) it was 1.55 µg/mL; in the series on Candida albicans (C. albicans H42, Compound 6 + Terbinafin in combination) it was 6.25 µg/mL. Moreover, the minimum inhibitory concentration (MIC) with Candida albicans (C. albicans B4) worked out at 12.5 µg/mL; in the series on Candida albicans (C. albicans B5) it was 6.25 µg/mL; in the series on Candida albicans (C. albicans H12), 100 µg/mL; in the series with Candida albicans (C. albicans H29), 6.25 µg/mL; in the series with Candida albicans (C. albicans H42), 100 µg/mL.

For orientation: pIC50 means the negative decadic logarithm of the IC50, by convention in mol/L. The LD50 is the dose expected to kill half of the subjects tested. A higher LD50 goes with a less toxic substance. With `CN(C)CCCCOc1ccc(C(=O)c2ccccc2)cc1` [Compound 1, 4-[[4-(dimethylamino)butyl]oxy]benzophenone], in series [1], the pIC50 is 5.54. Further, in series [2], the LD50 is > 4000 mg/kg.

Consider `CC(=O)N1CCN(c2ccc(OCC3COC(Cn4ccnc4)(c4ccc(Cl)cc4Cl)O3)cc2)CC1` (stereo not shown) [Ketoconazole, reference compound], for which the MIC in combination in the series with Candida albicans (C. albicans B4, Compound 6 + Ketoconazole in combination) turned out to be 0.155 µg/mL; in the series with Candida albicans (C. albicans B5, Compound 6 + Ketoconazole in combination) it was 0.31 µg/mL; in the series on Candida albicans (C. albicans H12, Compound 6 + Ketoconazole in combination), 0.155 µg/mL; with Candida albicans (C. albicans H29, Compound 6 + Ketoconazole in combination) it was 0.03 µg/mL; in the series on Candida albicans (C. albicans H42, Compound 6 + Ketoconazole in combination), 0.155 µg/mL. For the same compound, the MIC was 5 µg/mL in the series with Candida albicans (C. albicans B4); 5 µg/mL in the series on Candida albicans (C. albicans B5); 5 µg/mL in the series on Candida albicans (C. albicans H12); 0.25 µg/mL in the series with Candida albicans (C. albicans H29); 10 µg/mL in the series on Candida albicans (C. albicans H42).

In series [1], `C=CCN(C)CCCCCCOc1ccc(C(=O)c2ccccc2)cc1` [Compound 31, 4-[[6-(allylmethylamino)hexyl]oxy]benzophenone] showed a negative logarithm of the IC50 (pIC50) of 6.90. The 50% lethal dose (LD50) in series [2] fell in the range of 1000 to 2000 mg/kg.

Take `C=CCN(C)CCCCCCOc1ccc(C(=O)c2ccc(F)cc2)cc1` [Compound 33, 4-[[6-(allylmethylamino)hexyl]oxy]-4'-fluorobenzophenone]: the pIC50 in series [1] is 7.08.

The compound `C=CCN(C)CCCCCCOc1ccc(C(=O)c2ccccc2)cc1Cl` [Compound 39, 4-[[6-(allylmethylamino)hexyl]oxy]-3-chlorobenzophenone] had a negative logarithm of the IC50 (pIC50) in series [1] of 7.19.

`C=CCN(C)CCCCCCOc1ccc(C(=O)c2ccc(Cl)cc2Cl)cc1Cl` [Compound 40, 4-[[6-(allylmethylamino)hexyl]oxy]-2',3,4'-trichlorobenzophenone] had a pIC50 in series [1] of 7.24.

A word on the IC50: it is the concentration needed to halve the response being measured. For the compound `CN(C)CCCCCCCOc1ccc(C(=O)c2ccccc2)cc1` [Compound 18, 4-[[7-(dimethylamino)heptyl]oxy]benzophenone], the IC50 in series [1] (C. albicans cell-free extract, pH 6.9, 30°, 1 hour, read-out: IC50 (converted)) was 353 nM.
